From patent US12083115B2, “Methods for treating neurological symptoms associated with lysosomal storage diseases” (Genzyme Corporation, priority 2020, dated 2024)
Like-named read-outs stand apart in the source and are kept apart here.

Key:
Assay type in all cases: in vivo, human
[1] = Study 2: ascending repeated-dose PK in healthy adults; conditions: for AUC0-24, Geometric mean / AUC0-24, Mean / Cmax, Geometric mean / Cmax, Mean / tmax, median / CLR(0-24), Mean / CLss/F, Geometric mean / CLss/F, Mean / Ctrough, Geometric mean / Ctrough, Mean / CLR(0-24), Geometric mean / half-life: N = 9; for half-life: plasma
Description: The study enrolled and randomized 36 healthy adults (19 men and 17 women) (n=9 each to group).
Pharmacodynamic endpoints (plasma GL-1, GL-3, and GM3 concentrations) were assessed on Days 1-5, 8, 11, 13, and 14, at 0 hours […]; and on Day 15, at 24 hours after the Day 14 dose.

[2] = tested on: ceramide, chitotriosidase (CHITO), GM3, GPNMB in CSF; assay: Clinical study in GD-3 patients: exploratory CSF biomarkers
Description: (§1) During the study patients were evaluated for safety and tolerability, CSF and plasma biomarkers (glucosylceramide, GL-1; glucosylsphingosine, lyso-GL1), pharmacokinetics, markers for systemic disease (spleen and liver volume measured by magnetic resonance imaging (MRI), platelet count, hemoglobin levels), indicia of interstitial lung disease (high resolution pulmonary computed tomography (CT)), and horizontal saccadic eye movement. In addition, exploratory biomarkers were quantified in CSF of GD3 patients: ceramide (the precursor of GL-1), chitotriosidase (CHITO), GM3, and GPNMB. Symptoms of ataxia were measured using the SARA scale, neurological symptoms were measured using the trail making test, and functional MRI was used to assess neural connectivity in the brain.
In addition, exploratory biomarkers were quantified in CSF of GD3 patients: ceramide (the precursor of GL-1), chitotriosidase (CHITO; an enzyme known to be elevated in GD patients), GM3 (a glycosphingolipid marker known to be elevated in GD patients), and GPNMB (glycoprotein nonmetastatic melanoma protein B, reportedly a biomarker of neuropathic GD3).

glucosylceramide (GL-1) = assay: Clinical study in GD-3 patients: GL-1 in plasma and CSF; conditions: for GL-1 (% change): 52-weeks compared to baseline; for GL-1 concentration, 52-weeks (mean) / GL-1 concentration, 52-weeks: 15 mg/day + imiglucerase; for GL-1 concentration, 52-weeks: all six patients
Description: The endpoint assessments are related to safety, CSF biomarkers, pharmacokinetics/pharmacodynamics, systemic disease, and neuroimaging and neurological function (CNS/neurological manifestations).
as §1
Over all six GD3 patients, plasma and CSF GL-1 and lyso-GL-1 concentrations were as follows:
At Week 52, the CSF lyso-GL1 concentrations for Patient 5 were above the upper limit of quantification (ULOQ; >100 pg/mL), and biomarker results for CSF lyso-GL1 were therefore imputed using the exact ULOQ values. […] Mean results for the other study subjects were as follows (N=10; Patient 5 excluded): […]

[3] = tested on: adult patients with Gaucher disease Type 3; assay: Clinical study in GD-3 patients: resting-state fMRI connectivity
Description: as §1
Neurological function was further evaluated using functional magnetic resonance imaging (fMRI). Patient 2 was excluded because no fMRI data was collected at the Week 52 session. Resting-state fMRI screening sessions were performed at baseline screening, Week 26, and Week 52 visits. Connectivity estimates from four subjects (Patients 1, 3, 4, and […]) were entered into second-level analyses as a “compliant” group. Patient 5 was isolated due to likely non-compliance with study medication, as described above. Analyses were performed as described elsewhere (Smith et al. [2009]).
Spatial analysis of the connectivity between different anatomic regions of the brain is performed to define a correlation coefficient for regressed voxelwise mean intensity.
The results are summarized in the table below for all patients for RSNs 3 and 6 (RSNs 4 and 8 are not included) for the change in correlation coefficient between baseline and 52 weeks (as noted supra, Patient 2 is excluded because of lack of data).

[4] = repeated once-daily doses from 5-20 mg
[5] = Patient 5 (reduced Compound 2 exposure), Week 52 compared to baseline

Structure (SMILES): CC(C)(NC(=O)O[C@@H]1CN2CCC1CC2)c1csc(-c2ccc(F)cc2)n1 [Compound 2, (S)-quinuclidin-3-yl 2-(2-(4-fluorophenyl)thiazol-4-yl)propan-2-ylcarbamate]
- Ctrough values over time ([1]; 5, 10, or 20 mg once daily for 14 days): reached a plateau after Day 5
- median time of plasma Cmax ([1]; 5, 10, or 20 mg once daily for 14 days, Days 1 and 14): 2 to 5 h
- AUC0-24, Geometric mean ([1]; Day 1, 5 mg once daily): 292 ng·h/mL
- AUC0-24, Mean ([1]; Day 1, 5 mg once daily): 296 ng·h/mL
- Cmax, Geometric mean ([1]; Day 1, 5 mg once daily): 18.2 ng/mL
- Cmax, Mean ([1]; Day 1, 5 mg once daily): 18.5 ng/mL
- tmax, median ([1]; Day 1, 5 mg once daily): 5.00 h
- AUC0-24, Geometric mean ([1]; Day 1, 10 mg once daily): 623 ng·h/mL
- AUC0-24, Mean ([1]; Day 1, 10 mg once daily): 635 ng·h/mL
- Cmax, Geometric mean ([1]; Day 1, 10 mg once daily): 37.8 ng/mL
- Cmax, Mean ([1]; Day 1, 10 mg once daily): 38.5 ng/mL
- tmax, median ([1]; Day 1, 10 mg once daily): 3.00 h
- AUC0-24, Geometric mean ([1]; Day 1, 20 mg once daily): 1,080 ng · h/mL
- AUC0-24, Mean ([1]; Day 1, 20 mg once daily): 1,100 ng · h/mL
- Cmax, Geometric mean ([1]; Day 1, 20 mg once daily): 66.5 ng/mL
- Cmax, Mean ([1]; Day 1, 20 mg once daily): 68.0 ng/mL
- tmax, median ([1]; Day 1, 20 mg once daily): 3.07 h
- AUC0-24, Geometric mean ([1]; Day 14, 5 mg once daily): 632 ng·h/mL
- AUC0-24, Mean ([1]; Day 14, 5 mg once daily): 642 ng·h/mL
- CLR(0-24), Mean ([1]; Day 14, 5 mg once daily): 1.55 L/h
- CLss/F, Geometric mean ([1]; Day 14, 5 mg once daily): 5.9 L/h
- CLss/F, Mean ([1]; Day 14, 5 mg once daily): 5.98 L/h
- Cmax, Geometric mean ([1]; Day 14, 5 mg once daily): 36.5 ng/mL
- Cmax, Mean ([1]; Day 14, 5 mg once daily): 37.0 ng/mL
- Ctrough, Geometric mean ([1]; Day 14, 5 mg once daily): 19.0 ng/mL
- Ctrough, Mean ([1]; Day 14, 5 mg once daily): 19.4 ng/mL
- tmax, median ([1]; Day 14, 5 mg once daily): 3.00 h
- AUC0-24, Geometric mean ([1]; Day 14, 10 mg once daily): 1,490 ng · h/mL
- AUC0-24, Mean ([1]; Day 14, 10 mg once daily): 1,550 ng · h/mL
- CLR(0-24), Geometric mean ([1]; Day 14, 10 mg once daily): 1.4 L/h
- CLR(0-24), Mean ([1]; Day 14, 10 mg once daily): 1.49 L/h
- CLss/F, Geometric mean ([1]; Day 14, 10 mg once daily): 5.0 L/h
- CLss/F, Mean ([1]; Day 14, 10 mg once daily): 5.13 L/h
- Cmax, Geometric mean ([1]; Day 14, 10 mg once daily): 86.0 ng/mL
- Cmax, Mean ([1]; Day 14, 10 mg once daily): 89.7 ng/mL
- Ctrough, Geometric mean ([1]; Day 14, 10 mg once daily): 47.5 ng/mL
- Ctrough, Mean ([1]; Day 14, 10 mg once daily): 49.9 ng/mL
- tmax, median ([1]; Day 14, 10 mg once daily): 2.00 h
- AUC0-24, Geometric mean ([1]; Day 14, 20 mg once daily): 2,340 ng · h/mL
- AUC0-24, Mean ([1]; Day 14, 20 mg once daily): 2,420 ng · h/mL
- CLR(0-24), Geometric mean ([1]; Day 14, 20 mg once daily): 2.0 L/h
- CLR(0-24), Mean ([1]; Day 14, 20 mg once daily): 2.07 L/h
- CLss/F, Geometric mean ([1]; Day 14, 20 mg once daily): 6.4 L/h
- CLss/F, Mean ([1]; Day 14, 20 mg once daily): 6.58 L/h
- Cmax, Geometric mean ([1]; Day 14, 20 mg once daily): 137 ng/mL
- Cmax, Mean ([1]; Day 14, 20 mg once daily): 142 ng/mL
- Ctrough, Geometric mean ([1]; Day 14, 20 mg once daily): 69.9 ng/mL
- Ctrough, Mean ([1]; Day 14, 20 mg once daily): 73.3 ng/mL
- tmax, median ([1]; Day 14, 20 mg once daily): 3.00 h
- half-life ([1]; both sexes, human, oral, 5 mg, Day 14, 5 mg once daily, read-out: t1/2, Geometric mean (converted)): 29 h
- half-life ([1]; both sexes, human, oral, 5 mg, Day 14, 5 mg once daily, read-out: t1/2, Mean (converted)): 29.3 h
- half-life ([1]; both sexes, human, oral, 10 mg, Day 14, 10 mg once daily, read-out: t1/2, Geometric mean (converted)): 31.2 h
- half-life ([1]; both sexes, human, oral, 10 mg, Day 14, 10 mg once daily, read-out: t1/2, Mean (converted)): 31.3 h
- half-life ([1]; both sexes, human, oral, 20 mg, Day 14, 20 mg once daily, read-out: t1/2, Geometric mean (converted)): 34.5 h
- half-life ([1]; both sexes, human, oral, 20 mg, Day 14, 20 mg once daily, read-out: t1/2, Mean (converted)): 35 h
- CL renal ([1]; both sexes, human, urine and plasma, oral, After 14 once-daily doses, 5-20 mg, read-out: Mean CLR(0-24)): 24.8 to 34.5 mL/min
- effect of age and gender on accumulation [1, 4]: neither age nor gender affected accumulation
- time to steady state [1, 4]: ≤ 5 days
- CSF concentrations of ceramide, CHITO, or GPNMB ([2]; After 52 weeks of treatment, N = 6): no significant changes
- GM3 in CSF ([2]; four patients with measurable GM3 at baseline, at 4 weeks, 26 weeks, and 52 weeks): undetectable
- GL-1 (% change) (glucosylceramide (GL-1); CSF Concentration, N = 6, 15 mg/day + imiglucerase): −55.4%
- GL-1 (% change) (glucosylceramide (GL-1); CSF Concentration, N=10, Patient 5 excluded): −79% ± 12.1%
- GL-1 concentration, 52-weeks (mean) (glucosylceramide (GL-1); CSF, N=10, Patient 5 excluded, Baseline 7.11 ng/ml): 1.38 ng/mL
- GL-1 concentration, 52-weeks (glucosylceramide (GL-1); CSF, Baseline 6.36 ng/ml): 2.48 ng/mL
- increase in CSF GL1 (glucosylceramide (GL-1); [5]): ~37%
- increase in plasma GL1 (glucosylceramide (GL-1); [5]): ~14%
- GL-1 (% change) (glucosylceramide (GL-1); Plasma Concentration, N = 6, 15 mg/day + imiglucerase): −71.6%
- GL-1 (% change) (glucosylceramide (GL-1); Plasma Concentration, N=10, Patient 5 excluded): −77% ± 11.7%
- GL-1 concentration, 52-weeks (mean) (glucosylceramide (GL-1); Plasma, N=10, Patient 5 excluded, Baseline 5.66 μg/mL): 1280 ng/mL
- GL-1 concentration, 52-weeks (glucosylceramide (GL-1); Plasma, Baseline 6.21 μg/mL): 1590 ng/mL
- Change in Correlation Coefficient ([3]; Patient 1, RSNs 3 and 6, baseline to 52 weeks): 0.359
- Change in Correlation Coefficient ([3]; Patient 1, default mode (resting) network vs executive function network, first interim analysis): +0.20
- Change in Correlation Coefficient ([3]; Patient 3, RSNs 3 and 6, baseline to 52 weeks): 0.383
- Change in Correlation Coefficient ([3]; Patient 3, default mode (resting) network vs executive function network, first interim analysis): +0.20
- Change in Correlation Coefficient ([3]; Patient 4, RSNs 3 and 6, baseline to 52 weeks): 0.201
- Change in Correlation Coefficient ([3]; Patient 4, default mode (resting) network vs executive function network, first interim analysis): +0.20
- Change in Correlation Coefficient ([3]; Patient 5 (insufficient Compound 2 exposure), RSNs 3 and 6, baseline to 52 weeks): −0.173
- Change in Correlation Coefficient ([3]; Patient 5 (likely non-compliance), default mode (resting) network vs executive function network, first interim analysis): −0.13
- Change in Correlation Coefficient ([3]; Patient 6, RSNs 3 and 6, baseline to 52 weeks): 0.779
- Change in Correlation Coefficient ([3]; Patient 6, default mode (resting) network vs executive function network, first interim analysis): +0.70
- Change in Correlation Coefficient ([3]; Patient 7, RSNs 3 and 6, baseline to 52 weeks): −0.013
- Change in Correlation Coefficient ([3]; Patient 8, RSNs 3 and 6, baseline to 52 weeks): −0.058
- Change in Correlation Coefficient ([3]; Patient 9, RSNs 3 and 6, baseline to 52 weeks): −0.302
- Change in Correlation Coefficient ([3]; Patient 10, RSNs 3 and 6, baseline to 52 weeks): 0.105
- Change in Correlation Coefficient ([3]; Patient 11, RSNs 3 and 6, baseline to 52 weeks): 0.035
- connectivity between default mode and medial frontal networks (fMRI) ([3]; every subject except Patient 5, first interim analysis): enhanced connectivity
- connectivity between RSNs 1, 2 and 3 and RSNs 6, 7 and 8 (fMRI) ([3]; patients with sufficient Compound 2 exposure, second interim analysis): enhanced connectivity
